This is an account of results in ChEMBL document CHEMBL2169751, “Synthesis and biological evaluation of novel pyrazole derivatives with anticancer activity” (2011).

The subject of the experiment is Mycobacterium tuberculosis. As to the kind of experiment: Antimycobacterial activity against Mycobacterium tuberculosis H37Rv ATCC 27294 after 7 days by Resazurin assay. In kind it is functional. Further details: concentration or dose not given beside the values.

With `Cc1[nH]cnc1/C=N/NC(=O)c1cnc2c(C(F)(F)F)cccc2c1O`, the “inhibition (INH)” value amounted to 90%.
For `COc1ccc2[nH]cc(/C=N/NC(=O)c3cnc4c(C(F)(F)F)cccc4c3O)c2c1`, the “inhibition (INH)” value was determined as 95%.
On to `COC(=O)Cc1cc(/C=N/NC(=O)c2cnc3c(C(F)(F)F)cccc3c2O)co1`, for which the “inhibition (INH)” value was below 90%.
On to `O=C(N/N=C/c1cnc[nH]1)c1cnc2c(C(F)(F)F)cccc2c1O`, for which the “inhibition (INH)” value was found to be 90%.
Regarding `Cc1cccc2c(/C=N/NC(=O)c3cnc4c(C(F)(F)F)cccc4c3O)c[nH]c12`, the “inhibition (INH)” value worked out at 95%.
With `Cn1nnc2cc(/C=N\NC(=O)c3cnc4c(C(F)(F)F)cccc4c3O)ccc21`, the “inhibition (INH)” value is on record as below 90%.
Take `Cn1cccc1/C=N\NC(=O)c1cnc2c(C(F)(F)F)cccc2c1O`: the “inhibition (INH)” value turned out to be 90%.
The same measure for `O=C(N/N=C/c1ccc2c(c1)CCO2)c1cnc2c(C(F)(F)F)cccc2c1O`: 0%; for `COc1ccc(/C=N/NC(=O)c2cnc3c(C(F)(F)F)cccc3c2O)c(F)c1`: 95%.
In the case of `O=C(N/N=C/c1ccc(OC(F)(F)C(F)F)cc1)c1cnc2c(C(F)(F)F)cccc2c1O`, the “inhibition (INH)” value is listed as below 90%.
`CSc1ccccc1/C=N/NC(=O)c1cnc2c(C(F)(F)F)cccc2c1O`: the “inhibition (INH)” value is on record as 0%.
On to `O=C(N/N=C/c1cc(F)ccc1O)c1cnc2c(C(F)(F)F)cccc2c1O`, for which the “inhibition (INH)” value is below 90%.
Under `COc1ccc(/C=N/NC(=O)c2cnc3c(C(F)(F)F)cccc3c2O)cc1` stands 90%; under `COc1ccc(/C=N/NC(=O)c2cnc3c(C(F)(F)F)cccc3c2O)cc1O`, below 90%; under `O=C(N/N=C/c1ccncc1)c1cnc2c(C(F)(F)F)cccc2c1O`, 0%.
On to `Cc1ccc(/C=N/NC(=O)c2cnc3c(C(F)(F)F)cccc3c2O)cc1`, for which the “inhibition (INH)” value is given as below 90%.
As to `O=C(NNC(=S)Nc1cccnc1)c1cnc2c(C(F)(F)F)cccc2c1O`, the “inhibition (INH)” value came to 0%.
On to `O=C(NNC(=S)Nc1cccc(Cl)c1)c1cnc2c(C(F)(F)F)cccc2c1O`, for which the “inhibition (INH)” value was below 90%.
In the case of `O=C(NNC(=S)Nc1ccccc1F)c1cnc2c(C(F)(F)F)cccc2c1O`, the “inhibition (INH)” value is given as 95%.
On to `Cc1ccc(NC(=S)NNC(=O)c2cnc3c(C(F)(F)F)cccc3c2O)cc1`, for which the “inhibition (INH)” value was found to be 0%.
Take `COc1ccc(NC(=S)NNC(=O)c2cnc3c(C(F)(F)F)cccc3c2O)cc1`: the “inhibition (INH)” value is below 90%.
Consider `Cc1cc(C)cc(NC(=O)NNC(=O)c2cnc3c(C(F)(F)F)cccc3c2O)c1`, for which the “inhibition (INH)” value was below 90%.
With `O=C(NNC(=O)c1cnc2c(C(F)(F)F)cccc2c1O)Nc1cccc(Cl)c1`, the “inhibition (INH)” value is reported as below 90%.
Consider `COc1ccc(NC(=O)NNC(=O)c2cnc3c(C(F)(F)F)cccc3c2O)cc1`, for which the “inhibition (INH)” value was 90%.
The same measure for `Cc1ccc(NC(=O)NNC(=O)c2cnc3c(C(F)(F)F)cccc3c2O)cc1`: 90%; for `CCc1ccc(NC(=O)NNC(=O)c2cnc3c(C(F)(F)F)cccc3c2O)cc1`: below 90%.
Regarding `NNC(=O)c1ccncc1` [ISONIAZID], the “inhibition (INH)” value turned out to be 95%.
Under `CO[C@H]1/C=C/O[C@@]2(C)Oc3c(C)c(O)c4c(O)c(c(/C=N/N5CCN(C)CC5)c(O)c4c3C2=O)NC(=O)/C(C)=C\C=C\[C@H](C)[C@H](O)[C@@H](C)[C@@H](O)[C@@H](C)[C@H](OC(C)=O)[C@@H]1C` [RIFAMPIN] stands 95%.
